According to the supplement of paper PMC11061612:

Legend:
Capivasertib = compound: C1CN(CCC1(C(=O)N[C@@H](CCO)C2=CC=C(C=C2)Cl)N)C3=NC=NC4=C3C=CN4 [Capivasertib]; settings: max 10 µM
How it was run: (§1)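 Viability was measured with CellTiter-Glo 2.0 luminescence after 72 hours of dosing at a final DMSO of typically 0.2%, and scaled between blank-well and DMSO-well means. Beforehand, cancer cell lines sat 24 hours at 37°C and 5% CO2 in 1536-well plates in 7.5 μl DMEM/F12 or RPMI with 10% FBS. A non-linear mixed effects model fitted two-parameter logistic curves to the dose responses. The single-agent IC50 comes from these fits.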

AZD1775 = compound: C=CCn1c(=O)c2cnc(Nc3ccc(N4CCN(C)CC4)cc3)nc2n1-c1cccc(C(C)(C)O)n1 [AZD1775]; settings: max 3 µM
How it was run: as §1

Trametinib = compound: CC(=O)Nc1cccc(-n2c(=O)n(C3CC3)c(=O)c3c(Nc4ccc(I)cc4F)n(C)c(=O)c(C)c32)c1 [Trametinib]; settings: max 1 µM
How it was run: as §1

Palbociclib = compound: CC(=O)c1c(C)c2cnc(Nc3ccc(N4CCNCC4)cn3)nc2n(C2CCCC2)c1=O [Palbociclib]; settings: max 10 µM
How it was run: as §1

AZD1390 = compound: CC(C)n1c(=O)n(C)c2cnc3cc(F)c(-c4ccc(OCCCN5CCCCC5)nc4)cc3c21 [AZD1390]; settings: max 0.3 µM
How it was run: as §1

Venetoclax = compound: CC1(C)CCC(CN2CCN(c3ccc(C(=O)NS(=O)(=O)c4ccc(NCC5CCOCC5)c([N+](=O)[O-])c4)c(Oc4cnc5[nH]ccc5c4)c3)CC2)=C(c2ccc(Cl)cc2)C1 [Venetoclax]; settings: max 1 µM
How it was run: as §1

Dasatinib = compound: CC1=C(C(=CC=C1)Cl)NC(=O)C2=CN=C(S2)NC3=CC(=NC(=N3)C)N4CCN(CC4)CCO [Dasatinib]; settings: max 2 µM
How it was run: as §1

SG3199 = compound: CC1=CN2[C@@H](C1)C=NC3=CC(=C(C=C3C2=O)OC)OCCCCCOC4=C(C=C5C(=C4)N=C[C@@H]6CC(=CN6C5=O)C)OC [SG3199]; settings: max 0.001 µM
How it was run: as §1

AZD2811 = compound: CCN(CCO)CCCOc1ccc2c(Nc3cc(CC(=O)Nc4cccc(F)c4)[nH]n3)ncnc2c1 [AZD2811]; settings: max 1 µM
How it was run: as §1

SN-38 = compound: CCc1c2c(nc3ccc(O)cc13)-c1cc3c(c(=O)n1C2)COC(=O)[C@]3(O)CC [SN-38]; settings: max 0.3 µM
How it was run: as §1

AZD0156 = compound: CN(C)CCCOc1ccc(-c2ccc3ncc4c(c3c2)n(C2CCOCC2)c(=O)n4C)cn1 [AZD0156]; settings: max 3 µM
How it was run: as §1

AZD4320 = compound: CN(CC[C@H](CSC1=CC=CC=C1)NC2=C(C=C(C=C2)S(=O)(=O)NC(=O)C3=CC=C(C=C3)N4CCC(CC4)[C@H](C5=CC=CC=C5C6=CC=C(C=C6)Cl)O)S(=O)(=O)C(F)(F)F)CCO [AZD4320]; settings: max 1 µM
How it was run: as §1

Alisertib = compound: COc1cc(Nc2ncc3c(n2)-c2ccc(Cl)cc2C(c2c(F)cccc2OC)=NC3)ccc1C(=O)O [Alisertib]; settings: max 10 µM
How it was run: as §1

Gefitinib = compound: COc1cc2ncnc(Nc3ccc(F)c(Cl)c3)c2cc1OCCCN1CCOCC1 [Gefitinib]; settings: max 10 µM
How it was run: as §1

Prexasertib = compound: COc1cccc(OCCCN)c1-c1cc(Nc2cnc(C#N)cn2)n[nH]1 [Prexasertib]; settings: max 1 µM
How it was run: as §1

Doxorubicin = compound: COc1cccc2c1C(=O)c1c(O)c3c(c(O)c1C2=O)C[C@@](O)(C(=O)CO)C[C@@H]3O[C@H]1C[C@H](N)[C@H](O)[C@H](C)O1 [Doxorubicin]; settings: max 1 µM
How it was run: as §1

AZD5153 = compound: COc1nnc2ccc(N3CCC(c4ccc(OCCN5CCN(C)C(=O)[C@H]5C)cc4)CC3)nn12 [AZD5153]; settings: max 1 µM
How it was run: as §1

Lapatinib = compound: CS(=O)(=O)CCNCc1ccc(-c2ccc3ncnc(Nc4ccc(OCc5cccc(F)c5)c(Cl)c4)c3c2)o1 [Lapatinib]; settings: max 10 µM
How it was run: as §1

AZD8186 = compound: C[C@@H](Nc1cc(F)cc(F)c1)c1cc(C(=O)N(C)C)cc2c(=O)cc(N3CCOCC3)oc12 [AZD8186]; settings: max 3 µM
How it was run: as §1

Crizotinib = compound: C[C@@H](Oc1cc(-c2cnn(C3CCNCC3)c2)cnc1N)c1c(Cl)ccc(F)c1Cl [Crizotinib]; settings: max 10 µM
How it was run: as §1

Savolitinib = compound: C[C@@H](c1ccc2nccn2c1)n1nnc2ncc(-c3cnn(C)c3)nc21 [Savolitinib]; settings: max 1 µM
How it was run: as §1

AZD6738 = compound: C[C@@H]1COCCN1C2=NC(=NC(=C2)C3(CC3)[S@](=N)(=O)C)C4=C5C=CNC5=NC=C4 [AZD6738]; settings: max 10 µM
How it was run: as §1

AZD5991 = compound: Cc1c2c(nn1C)CSCc1cc(n(C)n1)CSc1cc(c3ccccc3c1)OCCCc1c(C(=O)O)n(C)c3c-2c(Cl)ccc13 [AZD5991]; settings: max 1 µM
How it was run: as §1

AZD7648 = compound: Cc1cc2ncnn2cc1Nc1ncc2c(n1)n(C1CCOCC1)c(=O)n2C [AZD7648]; settings: max 10 µM
How it was run: as §1

Taselisib = compound: Cc1nc(-c2cn3c(n2)-c2ccc(-c4cnn(C(C)(C)C(N)=O)c4)cc2OCC3)n(C(C)C)n1 [Taselisib]; settings: max 10 µM
How it was run: as §1

Selumetinib = compound: Cn1cnc2c(F)c(Nc3ccc(Br)cc3Cl)c(C(=O)NOCCO)cc21 [Selumetinib]; settings: max 10 µM
How it was run: as §1

Olaparib = compound: O=C(c1cc(Cc2n[nH]c(=O)c3ccccc23)ccc1F)N1CCN(C(=O)C2CC2)CC1 [Olaparib]; settings: max 10 µM
How it was run: as §1

Row | Cell Line | IC50, cell viability 72 h (Capivasertib) [µM] | IC50, cell viability 72 h (AZD1775) [nM] | IC50, cell viability 72 h (Trametinib) [nM] | IC50, cell viability 72 h (Palbociclib) [µM] | IC50, cell viability 72 h (AZD1390) [nM] | IC50, cell viability 72 h (Venetoclax) [nM] | IC50, cell viability 72 h (Dasatinib) [nM] | IC50, cell viability 72 h (SG3199) [nM] | IC50, cell viability 72 h (AZD2811) [nM] | IC50, cell viability 72 h (SN-38) [nM] | IC50, cell viability 72 h (AZD0156) [nM] | IC50, cell viability 72 h (AZD4320) [nM] | IC50, cell viability 72 h (Alisertib) [µM] | IC50, cell viability 72 h (Gefitinib) [µM] | IC50, cell viability 72 h (Prexasertib) [nM] | IC50, cell viability 72 h (Doxorubicin) [nM] | IC50, cell viability 72 h (AZD5153) [nM] | IC50, cell viability 72 h (Lapatinib) [µM] | IC50, cell viability 72 h (AZD8186) [nM] | IC50, cell viability 72 h (Crizotinib) [µM] | IC50, cell viability 72 h (Savolitinib) [nM] | IC50, cell viability 72 h (AZD6738) [µM] | IC50, cell viability 72 h (AZD5991) [nM] | IC50, cell viability 72 h (AZD7648) [µM] | IC50, cell viability 72 h (Taselisib) [µM] | IC50, cell viability 72 h (Selumetinib) [µM] | IC50, cell viability 72 h (Olaparib) [µM]
1 | CL-11 (Colorectal Carcinoma) | > 10 | 859 | 33.5 | > 10 | > 300 | > 1000 | > 2000 | > 1 | > 1000 | 57.9 | > 3000 | > 1000 | 0.527 | > 10 | 90.3 | > 1000 | 224 | > 10 | > 3000 | > 10 | > 1000 | 3.04 | > 1000 | > 10 | > 10 | 1.06 | > 10
2 | DBTRG-05MG (Glioblastoma) | > 10 | > 3000 | > 1000 | > 10 | > 300 | > 1000 | > 2000 | > 1 | > 1000 | > 300 | > 3000 | > 1000 | > 10 | > 10 | > 1000 | > 1000 | > 1000 | > 10 | > 3000 | > 10 | > 1000 | > 10 | > 1000 | > 10 | > 10 | > 10 | > 10
3 | HT-1080 (Other Solid Carcinomas) | > 10 | > 3000 | > 1000 | > 10 | > 300 | > 1000 | > 2000 | > 1 | > 1000 | > 300 | > 3000 | 721 | > 10 | > 10 | 536 | > 1000 | > 1000 | > 10 | > 3000 | > 10 | > 1000 | > 10 | > 1000 | > 10 | > 10 | > 10 | > 10
